Values joined by “and” are separate entries in the source; they are usually repeats but may differ in a detail not shown here. Equal values may be shown once. Marks after values point to notes of the source that are not given here.
Key:
[1] = Anti-obesity effect of betaine and Lycium chinensis leaf extract powder in human body; format: in vivo; conditions: Betaine 3 g twice/day 43 days
Description: In order to evaluate the anti-obesity effect of Lycium chinensis leaf extract powder and betaine, subjects' weight, body mass index (BMI), body fat, body fat percentage, and muscle mass were measured prior to the administration of betaine and Lycium chinensis leaf extract powder. Betaine and Lycium chinensis leaf extract powder were separately dissolved in water and administered at a single dose of 3 g and 10 g, respectively, twice a day just before breakfast and supper.
In consideration of their component properties, the Lycium chinensis leaf extract powder, which comprised various components, was administered for 22 days while 43 days was also allocated for the administration of betaine, a single compound. Preventive and therapeutic effects of the two ingredients on obesity were evaluated in view of changes in weight, BMI, body fat, body fat percentage, and muscle mass.

[2] = test system: high-fat diet-induced obesity models; experiment: Subcutaneous fat and total fat in high-fat diet-induced obesity mice; format: in vivo, C57BL/6 mice; conditions: JBB21 1, LWE 2, JBB21+LWE 1+2 g/kg
Description: (§1) Betaine (JBB21), a Lycium chinensis hot water extract powder (LWE), or a mixture thereof (JBB21+LWE) was orally administered five times a week to high-fat diet-induced obesity models and their effects on obesity, hyperlipidemia and fatty liver were analyzed. JBB21 and LWE were purchased as white and brown powders, respectively, from Bionutrigen, and stored at room temperature before use in the experiment.
(§2) C57BL/6, specific pathogen-free (SPF) mice (male, six weeks old, Division of Biomedical Research, Korea Research Institute of Bioscience and Biotechnology) were used as the test animals.
(§3) For comparison, a negative control and an obese group (high fat diet, HFD) were allowed to freely eat a radiation-sterilized control diet (CD, 10% kcal, Research Diets) and a high fat diet (HFD, 60% Kcal, Research Diets, supplied by Central Lab. Animal), respectively, during the administration of JBB21, LWE, or JBB21+LWE.
(§4) JBB21, LWE, and JBB21+LWE were dissolved in 3.D.W at concentrations of 100 mg/mL, 200 mg/mL, and 100+200 mg/mL, respectively, and each of the solutions was orally administered at a dose of 10 mL/kg five times a week for 56 days.
Meanwhile, subcutaneous fat was also measured.
In addition, total fat was measured in the mice administered with JBB21, LWE, or JBB21+LWE.

[3] = test system: high-fat diet-induced obesity models; experiment: Blood leptin, adiponectin and triglyceride levels in high-fat diet-induced obesity mice; format: in vivo, C57BL/6 mice; conditions: JBB21 1, LWE 2, JBB21+LWE 1+2 g/kg
Description: as §1, §2, §3, §4
Blood samples taken on 56 days after the administration of a mixture of JBB21 and LWE were placed in heparin-coated tubes and stored on ice, followed by centrifugation at 6,000 rpm for 5 min. The plasma thus obtained was analyzed for levels of blood leptin, a hormone marker for obesity, adiponectin, an anti-obesity hormone, and triglyceride levels, using an automated biochemistry analyzer (AU400, Olympus, Japan). Leptin and adiponectin vary in secretion and function depending on the level of fat accumulated in the body. The preventive and therapeutic effects of the mixture according to the present invention were determined in view of plasma levels of leptin and adiponectin.
In this regard, the blood levels of the hormones were measured using Mouse Leptin ELISA kit (Cat. #: MOB00) and Mouse Adiponectin ELISA kit (Cat. #: MRP300), respectively, both commercially available from R&D Systems.

[4] = test system: high-fat diet-induced obesity models; experiment: Weight change in high-fat diet-induced obesity mice; format: in vivo, C57BL/6 mice; conditions: JBB21 1, LWE 2, JBB21+LWE 1+2 g/kg
Description: as §1, §2, §3, §4
The negative control (CD), the obese group (HFD), and the test groups (JBB21, LWE, and JBB21+LWE) were monitored three times a week for weight change and diet intake before and during administration.
Each of the solutions of JBB21 and LWE was administered at a single dose of 10 mL/kg five times a week for 56 days. […] The LWE (2 g/kg) group decreased in weight by 6.5% by the last day, but no significant changes in weight had been observed during the test period.

[5] = test system: high-fat diet-induced obesity models; experiment: Effect on liver function: liver weight, hepatic triglyceride, GOT, GPT, pathology in high-fat diet-induced obesity mice; format: in vivo, C57BL/6 mice
Description: as §1, §2, §3, §4
Mice administered with JBB21, LWE, and JBB21+LWE were euthanized with CO2 gas and underwent laparotomy to excise the livers therefrom. The livers were weighed with a chemical balance, and compared with those from the control and the obese groups. A part of the liver was frozen in liquid nitrogen (LN2) to measure triglyceride and cholesterol contents while the other part was fixed in formalin for pathological analysis.
The frozen liver tissues were homogenized by a homogenizer, followed by centrifugation. The supernatant was analyzed for hepatic triglyceride and cholesterol levels using a triglyceride quantification kit (Cat. #: K622-100), and a cholesterol/cholesteryl ester quantification kit (Cat. #: K603-100), respectively, both commercially available from Biovision.
For pathological analysis, the liver tissue fixed in formalin was embedded in a paraffin block, and sectioned, and stained with H&E (Hematoxylin & Eosin) before observation under an optical microscope (FIG. 1).

[6] = L. chinensis leaf extract powder 10 g twice/day 22 days
[7] = L. chinensis leaf extract powder 10 g twice/day 22 days, baseline
[8] = HFD mice, oral five times a week for 56 days
[9] = compared to the obese group (Vehicle Control)
[10] = HFD mice, JBB21 1, LWE 2, JBB21+LWE 1+2 g/kg
[11] = vs. Vehicle Control, JBB21 1, LWE 2, JBB21+LWE 1+2 g/kg

**Q.** Which results are given for `C[N+](C)(C)CC(=O)O` [JBB21, betaine]?
**A.** BMI, After Administration [1]: 29.3; BMI, Reduction [1]: 2.7%; Body Fat, After Administration [1, 6]: 25.9; Body Fat, Change [1, 6]: -1.7 kg; Body Fat, Reduction [1, 6]: 6.2%; Body Fatness (body fat percentage), After Administration [1, 6]: 30.7; Body Fatness (body fat percentage), Change [1, 6]: -1%; Body Fatness (body fat percentage), Reduction [1, 6]: 3.2%; Muscle Mass, After Administration [1, 6]: 55.5; Muscle Mass, Change [1, 6]: -0.7 kg; Muscle Mass, Reduction [1, 6]: 1.3%; Weight, After Administration [1, 6]: 84.0 kg; Weight, Change [1, 6]: -3.0 kg; Weight, Reduction [1, 6]: 3.5%; Body Fat, Before Administration [1, 7]: 27.6; Body Fatness (body fat percentage), Before Administration [1, 7]: 31.7; Muscle Mass, Before Administration [1, 7]: 56.2; Weight, Before Administration [1, 7]: 87.0 kg; BMI, Before Administration ([1]; baseline): 30.1; Subcutaneous Fat [2, 8]: 2975.4 ± 530.4 mg; Total Fat [2, 8]: 7030.2 ± 947.9 mg; Subcutaneous Fat IR(%) [2, 9]: 14.2%; Total Fat IR(%) [2, 9]: 4.3% and 4.2%; Leptin IR(%) [3, 9]: 9.1% and 9.2%; Leptin (blood) ([3]; plasma, day 56, HFD mice): 134.3 ng/mL; Triglyceride (blood) ([3]; plasma, day 56, HFD mice): 74.7 mg/dL; Triglyceride (blood) IR(%) ([3]; vs. Vehicle Control): 22.3%; Weight, day 0 after treatment ([4]; day 0, HFD (60% Kcal) mice, oral five times a week, n = 10, in g (unit assumed)): 31.1 ± 1.5; Weight, day 11 after treatment ([4]; day 11, HFD (60% Kcal) mice, oral five times a week, n = 10, in g (unit assumed)): 31.9 ± 1.6; Weight IR(%), day 11 ([4]; day 11, vs. Vehicle Control (obese group)): 5.6%; Weight, day 21 after treatment ([4]; day 21, HFD (60% Kcal) mice, oral five times a week, n = 10, in g (unit assumed)): 34.5 ± 1.8; Weight IR(%), day 21 ([4]; day 21, vs. Vehicle Control (obese group)): 5.8%; Weight, day 30 after treatment ([4]; day 30, HFD (60% Kcal) mice, oral five times a week, n = 10, in g (unit assumed)): 36.1 ± 2.3; Weight IR(%), day 30 ([4]; day 30, vs. Vehicle Control (obese group)): 8.8%; Weight, day 39 after treatment ([4]; day 39, HFD (60% Kcal) mice, oral five times a week, n = 10, in g (unit assumed)): 38.4 ± 2.7; Weight IR(%), day 39 ([4]; day 39, vs. Vehicle Control (obese group)): 9.6* %; Weight, day 51 after treatment ([4]; day 51, HFD (60% Kcal) mice, oral five times a week, n = 10, in g (unit assumed)): 40.9 ± 3.1; Weight IR(%), day 51 ([4]; day 51, vs. Vehicle Control (obese group)): 9.6* %; Weight, day 56 after treatment ([4]; day 56, HFD (60% Kcal) mice, oral five times a week, n = 10, in g (unit assumed)): 42.0 ± 3.4; Weight IR(%) / weight loss, day 56 (last day) ([4]; day 56, vs. Vehicle Control (obese group)): 9.4%; Liver Wt ([5]; HFD mice, 56 days, JBB21 1, LWE 2, JBB21+LWE 1+2 g/kg): 1511.2 mg; liver appearance / hepatic fat deposits (in words) ([5]; HFD mice, H&E-stained liver tissue (FIG. 1)): clean and healthy livers almost free of fat deposits; GOT [5, 10]: 57.1 IU/L; GPT [5, 10]: 39.8 IU/L; GOT IR(%) ([5]; compared to the obese group (Vehicle Control), JBB21 1, LWE 2, JBB21+LWE 1+2 g/kg): 59.8%; Hepatic triglyceride ([5]; liver homogenate supernatant, HFD mice, JBB21 1, LWE 2, JBB21+LWE 1+2 g/kg): 3.1389 nmol/mL; Liver Wt IR(%) ([5]; relative to the obese group (Vehicle Control), JBB21 1, LWE 2, JBB21+LWE 1+2 g/kg): 25.4%; GPT IR(%) [5, 11]: 67.2%; Hepatic triglyceride IR(%) [5, 11]: 10.8%

Source: patent US20140050810A1, “ANTI-OBESITY COMPOSITION COMPRISING LYCIUM CHINENSIS LEAF EXTRACT AND BETAINE AS ACTIVE INGREDIENT” (BIONUTRIGEN CO., LTD., priority 2012, published 2014)
